The source of these data is patent US20240215575A1, “METHOD OF PREPARING 1-(2,2-DIMETHYLPROPYL)-CYCLOPROPENE AS SPRAYABLE ETHYLENE ANTAGONIST IN PLANTS AND USES THEREOF” (KYUNG SANG NAM DO, priority 2022, published 2024).

≈ marks a conversion by molar mass, not a printed value. Like-named read-outs stand apart in the source and are kept apart here.

The conditions of data set [1]: cited from earlier work.
In data set [2] the test system is banana fruits. The experiment in a line: 1-DCP immersion treatment of immature banana fruit followed by ethylene exposure. The class given is in vivo. The procedure:
In particular, immature banana fruits were harvested from a banana farm in Sancheong-gun, Gyeongsangnam-do and transported to the laboratory, and on the same day, the fruits were separated into two groups: the fruits (16) in Group A (control group) were immersed in a 0.025% wetting agent (Carba, FarmHannong) solution not containing 1-DCP, and the fruits (16) in Group B (treatment group) were immersed in a 1 mM 1-DCP aqueous emulsion for 1 second, respectively, to wet the surface with the solution, and then dried at room temperature. Subsequently the next day, half of the fruits (8 each) from groups A and B were divided into two 40 L containers, sealed, and then injected with ethylene gas, thus exposing the fruits to 10 ppm of ethylene for 24 hours. The treated banana fruits were then stored at room temperature and observed for the degree of ripening after 7 days and after 14 days.

Data set [3] is described as follows: Storage stability of 1-DCP and its cyclodextrin inclusion complex. The class given is physicochemical.
The test system of data set [4] is Taechu sweet persimmon fruits. The data set can be described thus: 1-DCP spray treatment of Taechu sweet persimmon fruits on the tree, flesh hardness during room temperature storage. It counts as in vivo, sweet persimmon (Taechu variety). The procedure:
In particular, four sweet persimmon trees of the Taechu variety were selected on October 7th at the Sweet Persimmon Research Institute Orchard located in Jinyeong-eup, Gyeongsangnam-do, and the fruits growing on two of these trees (control group) were treated with a solution containing 0.025% wetting agent (Carba, Farmhannong), and the fruits of the other two trees (treatment group) were sprayed with an aqueous emulsion containing 1 mM 1-DCP and 0.025% wetting agent using a manual sprayer. Fruits in each treatment group were harvested on October 24, and measured/observed for changes in flesh hardness after 7 days and 14 days while being stored at room temperature.

For the molecule `OC[C@H]1O[C@@H]2O[C@H]3[C@H](O)[C@@H](O)[C@@H](O[C@H]4[C@H](O)[C@@H](O)[C@@H](O[C@H]5[C@H](O)[C@@H](O)[C@@H](O[C@H]6[C@H](O)[C@@H](O)[C@@H](O[C@H]7[C@H](O)[C@@H](O)[C@@H](O[C@H]8[C@H](O)[C@@H](O)[C@@H](O[C@H]1[C@H](O)[C@H]2O)O[C@@H]8CO)O[C@@H]7CO)O[C@@H]6CO)O[C@@H]5CO)O[C@@H]4CO)O[C@@H]3CO` [β-cyclodextrin], in data set [1] (compared to the alpha type), the solubility in water result is reported as “extremely low solubility in water”.
In the case of `OC[C@H]1O[C@@H]2O[C@H]3[C@H](O)[C@@H](O)[C@@H](O[C@H]4[C@H](O)[C@@H](O)[C@@H](O[C@H]5[C@H](O)[C@@H](O)[C@@H](O[C@H]6[C@H](O)[C@@H](O)[C@@H](O[C@H]7[C@H](O)[C@@H](O)[C@@H](O[C@H]1[C@H](O)[C@H]2O)O[C@@H]7CO)O[C@@H]6CO)O[C@@H]5CO)O[C@@H]4CO)O[C@@H]3CO` [a-cyclodextrin, α-cyclodextrin], the solubility in water in data set [1] is 140 mg/mL (≈ 144 mM).
In the case of `CC(C)(C)CC1=CC1` [1-DCP, 1-(2,2-dimethylpropyl)-cyclopropene], the degree of ripening entry in data set [2] (1 mM 1-DCP aqueous emulsion, immersion for 1 second, 10 ppm ethylene for 24 hours, room temperature storage, observed after 7 and 14 days) is listed as “maintained a more immature state than the fruits of Group A up to 14 days”. Further, the “inhibition of ethylene action” value in data set [2] (immersion treatment, 1 mM or less, banana fruits) was “effectively inhibits ethylene action”; in data set [4] (spray treatment, 1 mM or less, Taechu fruits), “effectively inhibits ethylene action”. Besides, the “storage stability (polymerization)” value in data set [3] (refrigerated conditions) is “polymerization occurred within a few days”. The storage stability entry in data set [3] (room temperature) is “storage at room temperature for more than one day was impossible”; in data set [3] (stored in a −40° C. freezer) it was “several months or more”. The same molecule returned a flesh hardness in data set [4] (spray of 1 mM 1-DCP aqueous emulsion with 0.025% wetting agent, after 7 days of storage at room temperature) of 19.5 N.
